Source: ChEMBL document CHEMBL1201862, “PubChem BioAssay data set” (2004)
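Cultured in 96-well plates, cells were exposed to test compound for 48 hours across five concentrations. GI50 = concentration required for 50% inhibition of growth.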 Activity calls are given as the source filed them. Rule as the data show it: active = GI50 up to about 1.1 µM and inactive = higher.

Assays:
Test in all cases: inhibition of tumour cell growth, NCI panel, 48 h
OVCAR-8 = tested on: OVCAR-8
M14 = tested on: M14
NCI-H460 = tested on: NCI-H460
HOP-92 = tested on: HOP-92
EKVX = tested on: EKVX
UO-31 = tested on: UO-31
HCT-15 = tested on: HCT-15
HOP-62 = tested on: HOP-62
SF-268 = tested on: SF-268
NCI-H23 = tested on: NCI-H23
SK-MEL-2 = tested on: SK-MEL-2
IGROV-1 = tested on: IGROV-1
LOX IMVI = tested on: LOX IMVI
OVCAR-5 = tested on: OVCAR-5
OVCAR-3 = tested on: OVCAR-3
HL-60 = tested on: HL-60
HCC 2998 = tested on: HCC 2998
SNB-19 = tested on: SNB-19
PC-3 = tested on: PC-3

Measured: GI50

CC(=O)OCC1OC(OC2CC3C(C)(C)C(OC(C)=O)CC[C@]3(C)C3CCC45CC4(CC[C@H]5C(C)CC(O)[C@@H](O)C(C)(C)O)[C@]23C)C(O)C(O)C1O (stereo partly specified)
inactive: OVCAR-8 7.45 µM | M14 6.95 µM | NCI-H460 8.95 µM | HOP-92 7.01 µM | EKVX 7 µM | UO-31 6.38 µM | HOP-62 5.86 µM | SF-268 8.11 µM | NCI-H23 8.53 µM | SK-MEL-2 9.38 µM | IGROV-1 7.36 µM | LOX IMVI 6.95 µM | OVCAR-5 7.66 µM | OVCAR-3 7.19 µM | HL-60 3.5 µM | HCC 2998 6.84 µM | SNB-19 7.08 µM
7.64 µM: HCT-15

CC#CC(O)(C(=O)OC1CCC2CCC1N2C)C1CCCC1 (stereo unspecified)
inactive: OVCAR-8 > 100 µM | M14 > 100 µM | EKVX > 100 µM | UO-31 > 100 µM | HOP-62 > 100 µM | SF-268 > 100 µM | NCI-H23 > 100 µM | IGROV-1 > 100 µM | LOX IMVI > 100 µM | OVCAR-5 > 10 µM | OVCAR-3 > 100 µM | HCC 2998 > 100 µM | PC-3 > 100 µM | SNB-19 > 100 µM
> 100 µM: HCT-15

O=C(O)CCCCCOc1cccnc1/C=N/NC1=NCCN1
> 100 µM: HCT-15
inactive: OVCAR-8 > 100 µM | M14 > 100 µM | NCI-H460 > 100 µM | HOP-92 > 100 µM | EKVX > 100 µM | UO-31 > 100 µM | HOP-62 > 100 µM | SF-268 > 100 µM | NCI-H23 > 100 µM | SK-MEL-2 > 100 µM | IGROV-1 > 100 µM | LOX IMVI > 100 µM | OVCAR-5 > 100 µM | OVCAR-3 > 100 µM | HL-60 > 100 µM | HCC 2998 > 100 µM | SNB-19 > 100 µM

O=C1c2ccccc2C(=O)C1C(c1ccc([N+](=O)[O-])cc1)C1C(=O)c2ccccc2C1=O
inactive: OVCAR-8 25.5 µM | M14 55.7 µM | NCI-H460 > 100 µM | HOP-92 36.2 µM | EKVX > 100 µM | UO-31 44.7 µM | HOP-62 34.8 µM | SF-268 24.9 µM | NCI-H23 34.9 µM | SK-MEL-2 91 µM | LOX IMVI 18 µM | OVCAR-5 > 100 µM | OVCAR-3 18.5 µM | HL-60 58.3 µM | HCC 2998 > 100 µM | SNB-19 > 100 µM
63.1 µM: HCT-15

CCCCCCCCCCCC(=O)OCC1OC(n2cc(F)c(=O)[nH]c2=O)C(N)C(OC(=O)CCCCCCCCCCC)C1O (stereo unspecified)
inactive: OVCAR-8 93.1 µM | M14 64.4 µM | NCI-H460 > 100 µM | HOP-92 36.2 µM | EKVX > 100 µM | UO-31 > 100 µM | HOP-62 > 100 µM | SF-268 > 100 µM | NCI-H23 > 100 µM | SK-MEL-2 > 100 µM | LOX IMVI 88.3 µM | OVCAR-3 47.5 µM | HL-60 29.6 µM | HCC 2998 45.3 µM | SNB-19 > 100 µM
> 100 µM: HCT-15

O=C(CCc1nnc(S)[nH]1)Nc1ccccc1Cl
20.2 µM: HCT-15
inactive: OVCAR-8 > 100 µM | M14 > 100 µM | NCI-H460 > 100 µM | HOP-92 > 100 µM | EKVX > 100 µM | UO-31 > 100 µM | HOP-62 > 100 µM | SF-268 > 100 µM | NCI-H23 > 100 µM | SK-MEL-2 > 100 µM | IGROV-1 > 100 µM | LOX IMVI > 100 µM | OVCAR-5 > 100 µM | OVCAR-3 > 100 µM | HL-60 > 100 µM | HCC 2998 > 100 µM | SNB-19 > 100 µM

N#C/C(c1nc2ccccc2[nH]1)=c1\s/c(=C/c2ccc(Cl)cc2)c(=O)n1-c1ccccc1
inactive: OVCAR-8 > 100 µM | M14 > 100 µM | NCI-H460 > 100 µM | HOP-92 > 100 µM | EKVX > 100 µM | UO-31 > 100 µM | HOP-62 > 100 µM | SF-268 > 100 µM | NCI-H23 > 100 µM | SK-MEL-2 > 100 µM | IGROV-1 15.7 µM | LOX IMVI > 100 µM | OVCAR-5 > 100 µM | OVCAR-3 > 100 µM | HL-60 > 100 µM | HCC 2998 > 100 µM | SNB-19 > 100 µM
> 100 µM: HCT-15

COc1ccc(OCC(=O)O)c2c1CCC(C(C)C)C2=O (stereo unspecified)
inactive: OVCAR-8 > 100 µM | M14 > 100 µM | NCI-H460 > 100 µM | HOP-92 80.2 µM | EKVX > 100 µM | UO-31 > 100 µM | HOP-62 > 100 µM | NCI-H23 > 100 µM | SK-MEL-2 > 100 µM | IGROV-1 > 100 µM | LOX IMVI > 100 µM | OVCAR-5 > 100 µM | OVCAR-3 > 100 µM | HL-60 > 100 µM | HCC 2998 > 100 µM | SNB-19 > 100 µM

CCC(/C(=N/NC(=O)C[N+](C)(C)C)c1ccccc1)C1OC(=O)c2ccccc21 (stereo unspecified)
> 100 µM: HCT-15
inactive: OVCAR-8 > 100 µM | M14 > 100 µM | NCI-H460 > 100 µM | HOP-92 > 100 µM | UO-31 > 100 µM | HOP-62 > 100 µM | SF-268 > 100 µM | NCI-H23 > 100 µM | IGROV-1 > 100 µM | LOX IMVI > 100 µM | OVCAR-5 > 100 µM | OVCAR-3 > 100 µM | HL-60 > 100 µM | HCC 2998 > 100 µM | SNB-19 > 100 µM

COC(=O)c1nc(N)nc(O)c1-c1ccc(Cl)cc1
> 100 µM: HCT-15
inactive: OVCAR-8 > 100 µM | M14 > 100 µM | NCI-H460 > 100 µM | HOP-92 > 100 µM | EKVX > 100 µM | UO-31 > 100 µM | HOP-62 > 100 µM | SF-268 > 100 µM | NCI-H23 > 100 µM | SK-MEL-2 > 100 µM | IGROV-1 > 100 µM | LOX IMVI > 100 µM | OVCAR-5 > 100 µM | OVCAR-3 > 100 µM | HL-60 > 100 µM | HCC 2998 > 100 µM | SNB-19 > 100 µM

O=c1nc(NC(c2ccccc2)(c2ccccc2)c2ccccc2)ccn1CCNCCn1ccc(NC(c2ccccc2)(c2ccccc2)c2ccccc2)nc1=O
> 100 µM: HCT-15
inactive: OVCAR-8 10.7 µM | M14 18.3 µM | NCI-H460 11.8 µM | HOP-92 5.45 µM | EKVX 18.7 µM | UO-31 > 100 µM | HOP-62 15.5 µM | SF-268 4.84 µM | NCI-H23 12.5 µM | SK-MEL-2 2.66 µM | IGROV-1 5.15 µM | LOX IMVI 2.84 µM | OVCAR-5 31 µM | OVCAR-3 11.9 µM | HL-60 2.41 µM | HCC 2998 3.96 µM | SNB-19 9.27 µM

Cc1nc2ccccc2c(=O)[nH]1
> 100 µM: HCT-15
inactive: OVCAR-8 > 100 µM | M14 > 100 µM | NCI-H460 > 100 µM | HOP-92 > 100 µM | EKVX > 100 µM | UO-31 > 100 µM | HOP-62 > 100 µM | SF-268 > 100 µM | NCI-H23 > 100 µM | SK-MEL-2 > 100 µM | IGROV-1 > 100 µM | LOX IMVI > 100 µM | OVCAR-5 > 100 µM | OVCAR-3 > 100 µM | HL-60 > 100 µM | HCC 2998 > 100 µM | SNB-19 > 100 µM
